Consider four compounds from patent publication US8680058B2, “Selectively targeted antimicrobial peptides and the use thereof” (priority 2006, dated 2014).

≈ marks a conversion by molar mass, not a printed value. Non-standard residues stand in square brackets, D forms with d. Residues, ends and D or L forms follow the SMILES beside them. No end group written: not given here.

Assay [1] deals with P. aeruginosa ATCC 15692. The assay can be described thus: Time-kill (killing kinetics), P. aeruginosa in LB with 30% mouse serum. It counts as cell-based, Pseudomonas aeruginosa. As to conditions: 10 μM, 1 min to 2 h. On the procedure:
Time-Kill (killing kinetics) experiments were performed essentially as described previously (Eckert et al., 2006). Briefly, P. aeruginosa were grown to log phase and diluted to ˜1×10^5 cfu/mL (moderate density planktonic cultures) in LB with 30% mouse serum (MP Biomedicals) prior to the addition of 10 μM tobramycin, G10 or G10KHc to the cell suspensions. At each time point, 10 μL of the culture was removed and P. aeruginosa cells rescued by dilution in 500 μL LB and kept on ice until plating. Surviving cfu/mL were quantitated after plating on LB agar and incubating overnight at 37° C. under aerobic conditions.

In another assay the test system is P. aeruginosa. The assay can be described thus: microbe, parasite or virus in culture. The following applies: for MIC: Pseudomonas aeruginosa. It counts as cell-based, Pseudomonas aeruginosa. Here is the method:
2.3 Antimicrobial Activities. The general antimicrobial activities of G10KHc, G10, and tobramycin against clinical isolates of P. aeruginosa were evaluated by minimum inhibitory concentration (MIC) assay as previously described (Eckert et al., 2006) and shown in Table 5. MICs are reported in μM, though for familiarity, 1 μM tobramycin=0.468 μg/mL. P. aeruginosa were grown to log phase and adjusted to ˜1×10^5 cfu/mL in Mueller-Hinton (MH) broth and added to 96-well plates. Two-fold serial dilutions of peptide were then added to bacteria and the plates incubated for 18-24 hours at 37° C. MIC was determined as the concentration of peptide present in the last clear well (no growth). […] In contrast to tobramycin, G10KHc was also effective against aminoglycoside and multiple-antibiotic resistant P. aeruginosa isolated from CF patients (AGR10, MR15). Additionally, as mucoid P. aeruginosa are often associated with reduced susceptibility to antimicrobial agents, we were encouraged to find that G10KHc was active against one such strain, PDO300.

In a further assay the test system is S. mutans biofilms. The assay is described as follows: Binding of fluorescently labeled genome-derived peptides to S. mutans biofilms. The arrangement: species or system Streptococcus mutans. The following applies: fluorescent label. An excerpt: The targeting peptide 1903 was obtained by scanning the genomic sequence of S. mutans UA140. The predicted open reading frames (ORFs) of the publicly-available genome were examined and those ORFs that encoded for proteins under 50 amino acids were noted and re-examined after scanning the entire genome. A number of peptides predicted to be encoded by these ORFs were selected, synthesized with fluorescent labels, tested for binding to S. mutans biofilms.

The test system of a further assay is P. aeruginosa biofilms. The assay can be described thus: Rotating-disk biofilm reactor, P. aeruginosa biofilm killing. It counts as cell-based, Pseudomonas aeruginosa. As to conditions: 100 μg/mL alone, 4 h or 24 h.
Assay [2] has as its system P. aeruginosa ATCC 15692. The assay is described as follows: Time-kill against high-density planktonic P. aeruginosa. It counts as cell-based, Pseudomonas aeruginosa. Here is the method:
For evaluation of enhanced activity between G10KHc and tobramycin against high density planktonic cultures, ATCC 15692 were grown overnight were adjusted to ˜1×10^8 cfu/mL in ddH2O (pH 7.4) and exposed to 5 μM tobramycin, 5 μM G10KHc or a combination of both agents (a combination of 5 μM tobramycin (2.34 μg/mL) and 5 μM G10KHc or G10). 10 μL of the treated cultures was rescued by dilution after 24 h and the surviving cfu/mL plated on LB and counted after growth on LB agar.

For assay [3], the system named is P. aeruginosa ATCC 15692. The assay can be described thus: Killing of exogenous P. aeruginosa in pooled CF sputum. It counts as cell-based, Pseudomonas aeruginosa. As to conditions: 25 μM, 4 h, no inhibitor. On the procedure: 3.2 Activity and stability of G10KHc and G10KHc-D in sputum. Determination of peptide antimicrobial effects or activity in sputum was investigated in a similar manner to previous reports (Sajjan et al., 2001). To assay the activity of G10KHc and G10KHc-D against exogenous P. aeruginosa in sputum, collected sputum samples were diluted 1:10 in 10 mM PBS (PBS) and pooled (referred to as pooled sputum). In 100 μL pooled sputum, ATCC 15692 was added to a final concentration of ˜5×10^6 cfu/mL prior to 25 μM peptide addition.
In samples examining the effect of protease inhibitors on peptide activity, pooled sputum samples were pre-treated for 30 min with 1 mM protease inhibitor, either phenylmethylsulphonylfluoride (PMSF), beta-mercaptoethanol (BME), or ethylenediaminetetraacetic acid (EDTA), (all acquired from Sigma-Aldrich), followed by addition of 25 μM G10KHc and ATCC 15692 (˜5×10^6 cfu/mL).
Bacteria surviving peptide treatment were rescued by dilution (1:50) in growth media at 4 h and kept on ice before appropriate dilution and plating on LB agar supplemented with ampicillin (25 μg/mL). After overnight incubation at 37° C., colonies were counted and the surviving cfu/mL quantitated. 100 cfu/mL was considered as the countable limit for all plating procedures. […]

Assay [4] relates to P. aeruginosa ATCC 15692. The assay is described as follows: Effect of rhDNase on STAMP killing in concentrated sputum. As to conditions: concentrated sputum not treated with rhDNase. It counts as cell-based, Pseudomonas aeruginosa. On the procedure:
3.4 Effect of rhDNase on STAMP activity in sputum. Recombinant human DNase, which is commonly used during treatment of CF to reduce sputum viscosity and promote airway clearing (Fuchs et al., 1994), was added to pooled, concentrated sputum samples to determine if G10KHc/PMSF and G10KHc-D activity could be improved during co-treatment under these conditions. To determine the effect of rhDNase (Genentech, San Francisco, Calif.) on STAMP killing ability, individual sputum samples were diluted 1:2 in 100 μg/mL rhDNase, briefly vortexed, and incubated at room temperature for 10 min. Treated samples were then pooled, followed by 1 mM PMSF addition, where appropriate, and incubation for 1 h. 25 μM G10KHc or G10KHc-D was then added with ˜5×10^6 cfu/mL ATCC 15692 and incubated 4 h. Survivors were then rescued and quantitated by plating as described above.

Procedure for P. aeruginosa biofilms: In this experiment, a rotating-disk biofilm reactor system was used for generating quantitative data on biofilm susceptibility to tobramycin, G10 and G10KHc. The system consisted of a reactor vessel containing 250 mL of diluted trypticase-soy broth (TSB) (1:100) medium. Reactors were inoculated with overnight cultures (1%, v/v). After static overnight growth in TSB, a flow of fresh medium was initiated (dilution rate, 0.7 h^−1). After 24 h in a flow of medium, the polycarbonate chips with attached biofilm bacteria were aseptically removed from the spinning disk and washed three times in ddH2O (pH 7.4) and incubated in 1 mL ddH2O. G10 (100 μg/mL), G10KHc (100 μg/mL), tobramycin (100 μg/mL), or a combination of the two was added as indicated. The chips were then incubated for 4 or 24 h in 24-well tissue culture plates (Falcon no. 353047; Becton Dickinson Labware, Franklin Lakes, N.J.). To estimate the number of viable P. aeruginosa remaining, the disks were placed in 1 mL PBS and the cells were dispersed using a tissue homogenizer (Brinkmann Instruments, Westbury, N.Y.) and the total cfu per chip was determined by serial dilution and plating on LB agar.

Regarding “KNLRRIIRKGIHIIKKYG [novispirin G10, KNLRRIIRKGIHIIKKYG]”, in the assay on P. aeruginosa ATCC 15692 [1], the “killing kinetics (in words)” value is on record as “ineffective”. Further, in the assay with P. aeruginosa, the MIC range was in the range of 10 to 60 µM and the “mean MIC” value came to 23.4 µM.

As to “NIFEYFLE (synthetic targeting peptide 1903)”, in the assay with S. mutans biofilms, the “binding to S. mutans” value was “showed the binding activity to S. mutans”.

`NC[C@H]1O[C@H](O[C@H]2[C@H](O)[C@@H](O[C@H]3O[C@H](CO)[C@@H](O)[C@H](N)[C@H]3O)[C@H](N)C[C@@H]2N)[C@H](N)C[C@@H]1O` [tobramycin]: the “killing effect against P. aeruginosa biofilms” value in the assay on P. aeruginosa biofilms is listed as “very limited killing effects”. Further, in the assay on P. aeruginosa ATCC 15692 [2] (5 μM (2.34 μg/mL), 24 hours, high-density planktonic cells), the “improvement in bactericidal effect over 5 μM G10 or G10KHc” value is 1-2 log10. The “surviving cfu/mL” value with P. aeruginosa ATCC 15692 [2] (5 μM each agent, 24 h, 1×10^8 cfu/mL culture) is recorded as 1×10^7 cfu/mL. The MIC was determined as 2.12 µM (≈ 0.991 µg/mL) in the assay with P. aeruginosa (ATCC9027, P. aeruginosa ATCC 9027); 1.75 µM (≈ 0.818 µg/mL) against P. aeruginosa (ATCC10145, P. aeruginosa ATCC 10145); 3.05 µM (≈ 1.43 µg/mL) in the assay on P. aeruginosa (ATCC15692, P. aeruginosa ATCC 15692); 1.75 µM (≈ 0.818 µg/mL) in the assay on P. aeruginosa (ATCC27583, P. aeruginosa ATCC 27583); 55 µM (≈ 25.7 µg/mL) against P. aeruginosa (P. aeruginosa AGR10 (aminoglycoside resistant, CF isolate)); 55 µM (≈ 25.7 µg/mL) in the assay with P. aeruginosa (P. aeruginosa MR15 (multiple-antibiotic resistant, CF isolate)). For the same compound, the MIC came to 2.12 µM (≈ 0.991 µg/mL) against P. aeruginosa (P. aeruginosa PAK); 0.4 µM (≈ 0.187 µg/mL) against P. aeruginosa (P. aeruginosa S40); 0.4 µM (≈ 0.187 µg/mL) against P. aeruginosa (P. aeruginosa S60); 3.5 µM (≈ 1.64 µg/mL) in the assay with P. aeruginosa (P. aeruginosa S100); 0.7 µM (≈ 0.327 µg/mL) against P. aeruginosa (PA14, P. aeruginosa PA14); 2.5 µM (≈ 1.17 µg/mL) against P. aeruginosa (PAO1, P. aeruginosa PAO1).

Take `CC[C@@H](C)[C@@H](NC(=O)CNC(=O)[C@@H](CCCCN)NC(=O)[C@@H](CCCNC(=N)N)NC(=O)[C@H](NC(=O)[C@H](NC(=O)[C@@H](CCCNC(=N)N)NC(=O)[C@@H](CCCNC(=N)N)NC(=O)[C@@H](CC(C)C)NC(=O)[C@@H](CC(N)=O)NC(=O)[C@@H](CCCCN)NC(=O)[C@@H](CO)NC(=O)CNC(=O)CNC(=O)[C@@H](CO)NC(=O)CNC(=O)CNC(=O)[C@@H](Cc1c[nH]cn1)NC(=O)[C@@H](CCCCN)NC(=O)[C@@H](CCCNC(=N)N)NC(=O)[C@@H](Cc1c[nH]cn1)NC(=O)[C@@H](CCCCN)NC(=O)[C@@H](CCCNC(=N)N)NC(=O)[C@@H](Cc1c[nH]cn1)NC(=O)[C@@H](CCCCN)NC(=O)[C@@H](CCCNC(=N)N)NC(=O)[C@@H](Cc1c[nH]cn1)NC(=O)[C@@H](CCCCN)NC(=O)[C@H](N)CCCCN)[C@H](C)CC)[C@H](C)CC)C(=O)N[C@H](Cc1c[nH]cn1)C(=O)N[C@@H](C(=O)N[C@@H](C(=O)N[C@H](CCCCN)C(=O)N[C@H](CCCCN)C(=O)N[C@H](Cc1ccc(O)cc1)C(=O)NCC(=O)O)[C@H](C)CC)[C@H](C)CC` [Peptide G10KHc-D] (H-[dK][dK][dH][dR][dK][dH][dR][dK][dH][dR][dK][dH]GG[dS]GG[dS][dK][dN][dL][dR][dR][dI][dI][dR][dK]G[dI][dH][dI][dI][dK][dK][dY]G-OH; N-terminus and C-terminus assumed): the “reduction of recovered P. aeruginosa compared to untreated samples” value in the assay on P. aeruginosa ATCC 15692 [3] is 3-4 log10. In addition, the “recovered cfu/mL as percent of untreated control” value in the assay with P. aeruginosa ATCC 15692 [4] was roughly 30%.
